This is an account of results in PubChem BioAssay AID179 (DTP/NCI, 2004).

This experiment deals with CEM cells HIV-1 protection, formazan growth assay. As to the kind of experiment: NCI AIDS Antiviral Assay. The following applies: for IC50: measured here: growth of uninfected CEM cells. A digest of the protocol: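 CEM (human) cells, HIV-1 infected vs uninfected, 5-point dosing, formazan growth read-out. Retest threshold 50% protection.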

The structures appear in SMILES notation. Several values for one entry are separate records, joined by “and”; a condition that tells them apart may be missing. Equal entries are not always repeated. Activity calls are given as the source filed them.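 The calls were made as follows: active = compounds giving half or more protection of infected cells from virus-caused growth loss, again on retest; inactive = the rest.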 Where a SMILES comes first, the peptide text is derived from it. The star is where a group is joined. Boc = CC(C)(C)OC(=O)*

Regarding `CC#CCOC(=O)c1ccccc1OC(C)=O.[C-]#[O+].[C-]#[O+].[C-]#[O+].[C-]#[O+].[C-]#[O+].[C-]#[O+].[Co].[Co]`, the EC50 (as a rule, the concentration giving half of the maximal effect) was greater than 200 µM and the IC50 (usually the point on the concentration scale where inhibition reaches its midpoint) was 7.76 µM. In the same order, the values of `COCCOCN(C(=O)C1=CCC2(CC1)OCCO2)c1ccccc1I` are greater than 200 µM and greater than 200 µM.

Take `CCOC(=O)/C(=C/c1cccc(Cl)c1)C(=O)c1ccccc1`: the EC50 was greater than 12 µM and the IC50 was greater than 12 µM. With `Nc1nc2c(ncn2C2CCC(CO)OC2)c(=O)[nH]1` (stereo not drawn), the EC50 is 145 µM and the IC50 is greater than 200 µM. On the same counts, the results for `O=C(Nc1ccccc1)OCCN=C1c2ccccc2CCc2ccccc21` are greater than 200 µM and 18.6 µM. `CCN(CCCl)CCNc1c2ccccc2nc2ccc(OC)cc12`: the result was inactive. `O=c1[nH]c(Nc2ccc(Cl)cc2)nc2nc[nH]c12`: the EC50 is greater than 100 µM and the IC50 was found to be 89.1 µM.

`Cn1c(=O)c(Cc2c(O)c3ccccc3n(C)c2=O)c(O)c2ccccc21`: the EC50 is greater than 7.24 µM and the IC50 is greater than 7.24 µM. With `CC(=O)OCC1OC(n2c(-c3ccccc3)c(C(C)=O)c(-c3cccc4ccccc34)c(C#N)c2=S)C(OC(C)=O)C(OC(C)=O)C1OC(C)=O` (stereo not drawn), the EC50 was greater than 200 µM; the IC50 is 85.1 µM and 117 µM. For the molecule `O=C1C=CC2O[C@H](c3ccccc3)[C@@H](O)C2O1` (stereo partly drawn), the EC50 is greater than 1070 µM and the IC50 stood at 6.46 µM. Turning to `Cc1ccc2c(CC(=O)O)cc(=O)oc2c1`, the EC50 was greater than 229 µM and the IC50 was 38.9 µM. Regarding `CC(=O)NNC(=S)/N=C/C(C(=O)Nc1ccc(Cl)cc1)=C(\C)O`, the outcome was inactive. With `CC(/C=C/C1OC(=O)C=CC1C)=C\C(C)C/C=C/C(C)=C/C(C)C(=O)C(C)C(O)C(C)C/C(C)=C/C(=O)O` (stereo not drawn), the EC50 was greater than 0.02 µM and the concentration for half-maximal inhibition (IC50) was 0.00631 µM. In the same order, the values of `COC(=O)c1nc(N)[nH]c(=O)c1-c1ccc(Cl)cc1` are 251 µM and 891 µM. In the case of `CCn1c(C)nc2c(N)cccc2c1=O`, the EC50 was greater than 1230 µM and the IC50 was greater than 1230 µM. As for `N#Cc1sc2c(c1OC(=O)c1ccc(C(F)(F)F)cc1)c(=O)n(-c1ccccc1)c(=S)n2-c1ccccc1`, the EC50 was greater than 200 µM and the IC50 was determined as 2.24 µM.

For `Cc1ccc(SC2C(C)(C)N(C(C)C)P2(=O)N(C(C)C)C(C)C)cc1` (stereo not drawn), the EC50 was greater than 9.77 µM and the IC50 was greater than 9.77 µM. As for `O=C(O)/C(Cl)=C(\Cl)C(=O)Nc1ccccc1`, the result was inactive.

As for `CC1CN=C(Nc2ccc(S(N)(=O)=O)cc2)S1` (stereo not drawn), the EC50 was greater than 200 µM and the IC50 came out at 178 µM. Consider `O=c1[nH]c2ccsc2c(=O)n1COCc1ccccc1`, for which the EC50 was greater than 200 µM and the IC50 was greater than 200 µM. Turning to `COC(=O)C(Cc1ccccc1)NC(=O)C(CS)NC(=O)OC(C)(C)C` (stereo not drawn) (Boc-Cys-Phe-OMe; configuration not given here), the EC50 is greater than 200 µM and the IC50 was 9.55 µM.

On to `CC1(c2ccccc2)Sc2ccccc2-n2cccc2C1=O` (stereo not drawn), for which the 50% effective concentration (EC50) is 1.05 µM and the IC50 was 3.8 µM. On the same counts, the results for `COc1cc(Cc2ccc3c(c2C#N)N(C)c2ccccc2S3)cc(OC)c1OC` are greater than 200 µM and 3.63 µM.

For `COc1cc2cnc3c4cc(OC(C)C)c(OC)cc4ccc3c2cc1OC`, the result was inactive.

For the molecule `COc1ccc2c(c1)C(=O)Cc1ccccc1CC2`, the EC50 is greater than 39.8 µM and the IC50 was greater than 39.8 µM. On to `O=c1[nH]c2ccccc2c(=O)c2cc3ccccc3cc12`, for which the EC50 is greater than 200 µM and the half-inhibitory concentration (IC50) was greater than 200 µM.

Consider `COc1ccccc1/C=N/Nc1nnc2c3ccccc3c3ncccc3c2n1`, for which the EC50 was greater than 200 µM and the 50% inhibitory concentration (IC50) is 138 µM.

As to `O=C1[C@H]2ON(c3ccccc3)C(c3ccco3)[C@H]2C(=O)N1c1ccc(Cc2ccc(N3C(=O)[C@@H]4ON(c5ccccc5)C(c5ccco5)[C@@H]4C3=O)cc2)cc1` (stereo partly drawn), the EC50 was greater than 7.08 µM and the IC50 is greater than 7.08 µM. As for `CC1(C)CCCC(C)(C2CCC3(C)C2C(O)CC2C4(C)CCC(O)C(C)(C)C4C(O)CC23C)O1` (stereo not drawn), the result was inactive.

Regarding `CCN(CC)CCOC(=O)c1cc2cc([N+](=O)[O-])ccc2oc1=O`, the EC50 was greater than 214 µM and the IC50 is greater than 214 µM. Consider `CCOC(=O)Nn1c(C)nnc1-c1ccccc1`, for which the EC50 was greater than 200 µM and the IC50 is greater than 200 µM. As to `COc1ccc2c(c1)CCC(OS(=O)(=O)CC13CCC(CC1=O)C3(C)C)C2=O` (stereo not drawn), the EC50 was greater than 200 µM and the IC50 turned out to be 10.5 µM.

Take `CCOC(=S)SCC(=O)c1cccc([N+](=O)[O-])c1`: the outcome was inactive.

For `O=C1OC(=O)C2C3C=CC(C12)C1C2C=CC2C31` (stereo not drawn), the result was inactive. Take `COc1ccc2cc1Oc1ccc(cc1)C[C@H]1c3cc(c(OC)cc3CCN1C)Oc1c(OC)c(OC)cc3c1[C@H](C2)N(C)CC3`: the EC50 was greater than 21.9 µM, the outcome was inactive and the concentration for half-maximal inhibition (IC50) was determined as 12.3 µM. Take `O=C(NC1C2CC3CC(C2)CC1C3)c1cc(/C=C/c2ccccc2)[nH]c(=S)n1` (stereo not drawn): the EC50 was greater than 34.7 µM and the IC50 was greater than 34.7 µM.

For `C#CCOCC12C=CC(O1)C1COC(=O)C12` (stereo not drawn), the EC50 was greater than 200 µM and the IC50 is greater than 200 µM.

With `Cc1ccc(S(=O)(=O)NC(C)C(=O)O)cc1` (stereo not drawn), the result was inactive. Turning to `C=CCC(N(C)C(=O)[C@H](Cc1ccccc1)NC(=O)OCc1ccccc1)P(=O)(Oc1ccccc1)Oc1ccccc1` (stereo partly drawn), the EC50 is greater than 200 µM and the concentration for half-maximal inhibition (IC50) was found to be 77.6 µM. Regarding `N/C(=N\N=C\c1c[nH]c2cc(C(F)(F)F)ccc2c1=O)NO`, the EC50 is greater than 200 µM and the IC50 came out at 89.1 µM. On to `CCOc1cc(C2=NNc3n[nH]c(=S)n3N2)ccc1O`, for which the EC50 is 151 µM and the IC50 stood at 331 µM. In the same order, the values of `CC(C)(C)OC(=O)NC(Cc1ccc(O)cn1)C(=O)O` (stereo not drawn) are greater than 200 µM and greater than 200 µM. In the same order, the values of `CC(=O)N/C(=C\c1ccc(Cc2nc3c([nH]2)C(=O)c2ccccc2C3=O)cc1)c1nc2c([nH]1)C(=O)c1ccccc1C2=O` are greater than 12.6 µM and greater than 12.6 µM. For the molecule `CC1=CC(=O)N(c2c(C)cccc2Cl)C(C)N1` (stereo not drawn), the EC50 was greater than 1000 µM and the IC50 was greater than 1000 µM.

In the case of `C[C@@]1(CI)OC(=O)N2CCC[C@H]21`, the EC50 was greater than 891 µM and the IC50 is greater than 891 µM.

As for `COc1c2occc2c([N+](=O)[O-])c2ccc(=O)oc12`, the EC50 was greater than 30.9 µM and the IC50 amounted to 26.3 µM. As to `CC(=O)OC1C[N+]2(CCc3ccccc3)CCC1CC2` (stereo not drawn), the EC50 is greater than 708 µM and the IC50 was greater than 708 µM.

Turning to `CC1(C)C/C=C\CCC(O)C(O)CCC(C)(C)C1=O` (stereo not drawn), the EC50 was greater than 200 µM and the half-inhibitory concentration (IC50) is greater than 200 µM. As for `CC(C)(N)Cc1ccccc1Cl`, the EC50 was greater than 200 µM and the IC50 is greater than 200 µM. As for `N#Cc1ccc(OCc2ccc3nc(-c4ccccc4)c(Cl)nc3c2)cc1`, the EC50 is greater than 100 µM and the IC50 is greater than 100 µM. Take `CCCOP(=O)(OCCC)OC(C(F)(F)F)C(F)(F)F`: the EC50 is greater than 200 µM and the IC50 was greater than 200 µM. `O=C(/C=C/c1ccccc1)CCc1c(O)c2ccccc2oc1=O`: the EC50 was greater than 112 µM and the 50% inhibitory concentration (IC50) was 97.7 µM.

`NC(=O)NNC(=O)c1nc[nH]c1[N+](=O)[O-]`: the EC50 is greater than 200 µM and the IC50 is greater than 200 µM. Turning to `C[N+](C)(C)/N=C/c1ccc(O)c(O)c1`, the EC50 was greater than 200 µM and the IC50 was greater than 200 µM.

Turning to `CO/C(=N\N=C\c1ccccc1F)c1ccncc1`, the EC50 was greater than 141 µM and the concentration for half-maximal inhibition (IC50) is greater than 141 µM. As for `C/C=C(\C1CC2c3[nH]c4ccccc4c3CCN2C(=O)C1C(=O)OCC)[Si](C)(C)C` (stereo not drawn), the EC50 is greater than 12.3 µM and the IC50 is greater than 12.3 µM. As to `O=c1cc(Cl)c(=O)n(-c2ccccc2)[nH]1`, the EC50 is greater than 1120 µM and the IC50 is 1070 µM.

Consider `COC(=O)[C@@H]1C[C@@]23CCCN4CC[C@@]5(c6cccc(OC)c6N(C=O)[C@]15CC2)[C@@H]43`, for which the EC50 is greater than 66.1 µM and the 50% inhibitory concentration (IC50) is greater than 66.1 µM. In the case of `CC(=O)c1cccc(NC(=O)C(=O)C(C(=O)c2ccccc2F)C2OC(=O)c3ccccc32)c1` (stereo not drawn), the EC50 was greater than 389 µM and the IC50 is 15.8 µM. In the same order, the values of `CC(=O)n1[nH]c(=O)n(-c2ccccc2)c1=O` are greater than 200 µM and greater than 200 µM. In the case of `CNC(=O)CCC(NC(C)=O)C(=O)NC(Cc1ccc(NC(=O)CCCCC(C)=O)cc1)C(=O)NC(CCC(=O)NC)C(=O)NC` (stereo not drawn), the EC50 was greater than 200 µM and the IC50 was greater than 200 µM. As to `O=C(N=Nc1c(O)[nH]c2ccccc12)C(O)(c1ccccc1)c1ccccc1`, the EC50 was greater than 200 µM and the 50% inhibitory concentration (IC50) was found to be 39.8 µM. On the same counts, the results for `Cc1ccc(C2SCC(=O)N2c2ccc(-n3c(-c4ccccc4)nc4ccccc4c3=O)cc2)cc1` (stereo not drawn) are greater than 200 µM and 10.7 µM. Take `CCOC(=O)/C(O)=C/c1cc(OC)cc(=O)o1`: the result was inactive.

Regarding `C=Cc1c(-c2ccccc2)cnc2[nH]c3ccccc3c12`, the EC50 was greater than 13.8 µM and the IC50 is greater than 13.8 µM. For `Fc1ccc(N=NN2CCCC2)cc1`, the EC50 was greater than 200 µM and the concentration for half-maximal inhibition (IC50) stood at 123 µM. Turning to `CC1=CC2=C(OCO1)C(=O)c1ccccc1C2=O`, the result was inactive.

Take `O=C(O)c1cc(C(=CCC23CC4CC(CC(C4)C2)C3)c2cc(Cl)c(O)c(C(=O)O)c2)cc(Cl)c1O`: the EC50 is greater than 200 µM and the IC50 came to 105 µM.

For the molecule `O=C1C(=Cc2cccc(O)c2)N=C(c2ccccc2)N1n1c(-c2ccccc2)nc2ccccc2c1=O`, the EC50 was greater than 200 µM and the IC50 was determined as 8.51 µM.

In the case of `CN(C)CC(NC(NCS)C(=O)NCCNc1ccc(NCCNC(=O)C(NCS)NC(CN(C)C)OCCl)c2c1C(=O)c1c(O)ccc(O)c1C2=O)OCCl` (stereo not drawn), the EC50 was greater than 0.0501 µM and the IC50 came out at 0.0182 µM. With `Cc1cc(N(CCC#N)CCC#N)ccc1/C(N=Nc1ccc([N+](=O)[O-])cc1)=N\NC(=O)c1cc(Cl)ccc1O`, the EC50 is greater than 200 µM and the IC50 is 22.9 µM.
